This is an account of results in patent US7829721B2, “Specific caspase-10 inhibitors” (Merck Patent GmbH, priority 2004, dated 2010).

Some results are limits rather than exact numbers.

One experiment addresses T1, caspase 2 (Homo sapiens, UniProt P42575).
T1 sequence (P42575 170-325 limits assumed): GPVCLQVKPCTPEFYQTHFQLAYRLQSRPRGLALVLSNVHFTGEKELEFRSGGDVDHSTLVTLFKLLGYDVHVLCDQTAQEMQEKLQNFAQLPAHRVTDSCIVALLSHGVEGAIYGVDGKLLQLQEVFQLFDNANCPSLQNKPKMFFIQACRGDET
T1 sequence (P42575 348-452 limits assumed): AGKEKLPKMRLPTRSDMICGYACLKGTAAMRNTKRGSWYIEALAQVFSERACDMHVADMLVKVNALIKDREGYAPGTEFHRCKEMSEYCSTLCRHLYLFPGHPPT
Briefly: Caspase inhibition, delayed-time fluorescence method (europium substrate Eu-W1284-CDEVDK-QSy-7).

The next experiment has as its target T2, caspase-10 (Homo sapiens, UniProt Q92851).
T2 sequence (Q92851 220-415 limits assumed): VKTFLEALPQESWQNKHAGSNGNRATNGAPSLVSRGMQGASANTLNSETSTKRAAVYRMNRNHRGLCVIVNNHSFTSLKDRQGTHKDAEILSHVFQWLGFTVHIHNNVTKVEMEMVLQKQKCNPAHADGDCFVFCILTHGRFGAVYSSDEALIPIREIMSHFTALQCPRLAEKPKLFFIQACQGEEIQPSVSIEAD
T2 sequence (Q92851 416-521 limits assumed): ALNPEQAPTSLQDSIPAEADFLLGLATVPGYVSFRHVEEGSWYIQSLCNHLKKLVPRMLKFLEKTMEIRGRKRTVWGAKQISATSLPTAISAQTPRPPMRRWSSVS
Briefly: Caspase inhibition, delayed-time fluorescence method (europium substrate Eu-W1284-CIETDK-QSy-7).

In the next experiment the target is T3, caspase 6 (Homo sapiens, UniProt P55212).
T3 sequence (P55212 24-179 limits assumed): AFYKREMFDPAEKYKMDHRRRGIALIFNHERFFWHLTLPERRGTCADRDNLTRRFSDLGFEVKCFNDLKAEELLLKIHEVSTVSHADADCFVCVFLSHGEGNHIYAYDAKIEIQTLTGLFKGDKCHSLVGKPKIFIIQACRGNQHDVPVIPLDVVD
T3 sequence (P55212 194-293 limits assumed): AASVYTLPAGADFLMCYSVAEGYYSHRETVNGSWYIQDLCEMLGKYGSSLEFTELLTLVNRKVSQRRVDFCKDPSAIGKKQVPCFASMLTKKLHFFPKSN
Briefly: Caspase inhibition, delayed-time fluorescence method (europium substrate Eu-W1284-CVEIDK-QSy-7).

For the next experiment, the target named is T4, caspase 9 (Homo sapiens, UniProt P55211).
T4 sequence (P55211 1-315 limits assumed): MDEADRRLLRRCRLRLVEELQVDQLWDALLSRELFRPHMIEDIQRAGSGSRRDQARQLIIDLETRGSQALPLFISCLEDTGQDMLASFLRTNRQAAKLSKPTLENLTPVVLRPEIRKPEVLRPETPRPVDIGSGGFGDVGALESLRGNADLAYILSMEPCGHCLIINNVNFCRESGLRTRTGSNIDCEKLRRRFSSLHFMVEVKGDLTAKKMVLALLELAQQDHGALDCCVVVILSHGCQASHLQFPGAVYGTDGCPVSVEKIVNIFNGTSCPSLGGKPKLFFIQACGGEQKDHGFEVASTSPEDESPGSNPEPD
T4 sequence (P55211 331-416 limits assumed): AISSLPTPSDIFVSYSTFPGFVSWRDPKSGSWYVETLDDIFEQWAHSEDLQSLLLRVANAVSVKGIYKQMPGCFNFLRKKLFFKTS
Briefly: Caspase inhibition, delayed-time fluorescence method (europium substrate Eu-W1284-CLEHDK-QSy-7).

The next experiment concerns the target T5, caspase 3 (Homo sapiens, UniProt P42574).
T5 sequence (P42574 29-175 limits assumed): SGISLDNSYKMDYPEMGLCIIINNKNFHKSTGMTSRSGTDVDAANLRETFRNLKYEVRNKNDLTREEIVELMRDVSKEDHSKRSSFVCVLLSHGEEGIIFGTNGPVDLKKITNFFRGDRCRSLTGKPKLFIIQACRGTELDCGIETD
T5 sequence (P42574 176-277 limits assumed): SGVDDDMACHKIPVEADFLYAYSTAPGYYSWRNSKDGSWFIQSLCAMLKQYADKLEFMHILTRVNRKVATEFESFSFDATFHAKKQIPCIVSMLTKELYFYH
Briefly: Caspase inhibition, delayed-time fluorescence method (europium substrate Eu-W1284-CDEVDK-QSy-7).

For a further experiment, the target named is caspase 8 (Homo sapiens, UniProt Q14790). Briefly: Caspase inhibition, delayed-time fluorescence method (europium substrate Eu-W1284-CIETDK-QSy-7).
caspase 8, sequence (Q14790 217-374 limits assumed): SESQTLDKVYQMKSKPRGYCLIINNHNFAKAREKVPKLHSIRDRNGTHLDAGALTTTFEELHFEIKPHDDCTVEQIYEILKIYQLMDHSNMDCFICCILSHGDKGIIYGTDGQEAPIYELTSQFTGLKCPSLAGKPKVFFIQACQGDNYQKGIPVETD
caspase 8, sequence (Q14790 385-479 limits assumed): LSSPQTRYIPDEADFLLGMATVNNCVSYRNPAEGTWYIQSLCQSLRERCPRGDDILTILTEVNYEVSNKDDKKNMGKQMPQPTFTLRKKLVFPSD
The test system of a further experiment is diabetic rats. The settings on record: cited from earlier work.

Description for caspase 8: (§1) The substrate used is a tetrapeptide specific to this caspase, having at one of its ends a fluorescent europium marker (W1284) and at the other end a europium chelate fluorescence quencher (QSy-7): Eu-W1284-CIETDK-QSy-7.
(§2) The caspase cleaves the substrate, releasing the quencher. Thus, by excitation at 340 nm, the signal emitted by the fluorescence of the europium is read by WALLAC Victor^2 reader at 615 nm.
They are ready for use or can be divided into aliquots and stored at −80° C. […] 20 μl of this solution are distributed per well of the assay plate. […] The assay is performed with 1 U of enzyme per well, by distributing 20 μl of the diluted solution per well. • The standard inhibitors: The standard inhibitors are dissolved in DMSO to a concentration of 10 mM. They are tested at IC20 and at IC50 on the caspases they inhibit (see following table). The concentrations mentioned in the table are the final concentrations in the assay wells.
(§3) They are then distributed in the wells using this solution to reach the final concentration of IC20 or IC50, i.e. 3 μl in 33 μl of final reaction volume (dilution 1/11). Thus, the final concentration of DMSO in the well is 0.3% (v/v) final. […] An intermediate dilution (1/6.6) is pre-pared in DMSO by diluting 10 μl of the concentrated solution in 66 μl of DMSO (final volume). […] The inhibitors are then distributed in the wells to reach the final screening concentration (10 μM), i.e. 3 μl in 33 μl of final reaction volume (dilution 1/11) and a final concentration of DMSO of 0.3% (v/v) in the well.
The volumes and the protocol were optimised for automated use.
(§4) The incubation takes place for 3 hours 30 minutes at room temperature before reading the fluorescence in delayed time on the WALLAC Victor^2 reader with the filters corresponding to the fluorescence of europium (excitation filter: 340 nm, emission filter: 615 nm).
(§5) The inhibitors are diluted using solutions with concentrations of less than 20 mM in DMSO, and then prediluted in the caspase buffer.
Description for caspase-10: as §1, §2
20 μl of this solution are distributed per well of the assay plate. […] The assay is performed with 1 U of enzyme per well, by distributing 20 μl of the diluted solution per well. • The standard inhibitors: The standard inhibitors are dissolved in DMSO to a concentration of 10 mM.
as §3, §4, §5

Consider `Cc1ccc(-c2ccc(Cl)cc2CC(=O)O)cc1` [Example 12, (4-chloro-4′-methylbiphenyl-2-yl)acetic acid], for which the IC50 against caspase 2 is over 200 µM; against caspase-10 it was 13.1 µM; against caspase 6, over 200 µM; at caspase 9 it was over 200 µM; on caspase 3 it was over 200 µM; against caspase 8, over 200 µM.

As for `O=C(O)Cc1cc(Cl)ccc1-c1ccc(Cl)cc1` [Example 14, (4,4′-dichlorobiphenyl-2-yl)acetic acid], the concentration for half-maximal inhibition (IC50) is over 200 µM on caspase 2; 10.1 µM at caspase-10; over 200 µM at caspase 6; over 200 µM at caspase 9; over 200 µM against caspase 3; over 200 µM on caspase 8.

As to `O=C(O)Cc1cc(Cl)ccc1-c1ccc(C(F)(F)F)cc1` [Example 15, [4-chloro-4′-(trifluoromethyl)biphenyl-2-yl]acetic acid], the IC50 against caspase 2 is over 200 µM; on caspase-10, 23.6 µM; at caspase 6 it was over 200 µM; against caspase 9, over 200 µM; against caspase 3, over 200 µM; against caspase 8, over 200 µM.

As to `COc1ccc(-c2ccc(Cl)cc2CC(=O)O)cc1` [Example 16, (4-chloro-4′-methoxybiphenyl-2-yl)acetic acid], the IC50 was over 200 µM against caspase 2; 9 µM at caspase-10; over 200 µM against caspase 6; over 200 µM against caspase 9; over 200 µM against caspase 3; over 200 µM against caspase 8.

Turning to `N=C(N)NN` [aminoguanidine], the “reduced formation of acellular capillaries” value in the experiment on diabetic rats (diabetic rats treated for 26 weeks) is reported as 80%.

`Cc1ncc(CO)c(CN)c1O` [pyridoxamine]: the “death of the pericytes” value in the experiment on diabetic rats (diabetic rats treated for 29 weeks, versus untreated rats) was “prevents the death of the pericytes”.
